From patent US9504421B2, “Moisture indicating hydrophilic polyurethane” (ACTIVE DEVICE DEVELOPMENT LIMITED, priority 2012, dated 2016)

Test: Magnitude of colour change (light absorbance) dry vs damp for colour-formers dip-coated on MDI and TDI HPU foam (Example 25)
Settings: for Enhancement: light absorbance damp versus dry
Procedure: A range of colour-formers were dip-coated onto MDI- and TDI-based HPU foams using the following method:
A solution of colour-former in acetone (5 mg/ml) was prepared. A 20×20×5 mm square sample of a TDI-based or MDI-based HPU foam was fully immersed in the colour-former solution (20 ml), taking care to avoid air-locking within the foam. The sample was immediately removed from the solution and excess solution removed with light squeezing followed by hand compression between layers of absorbent tissue.
The sample was oven dried at 70° C. for 10 minutes, resulting in an off-white sample in all cases.
The light absorbance of the resulting samples was recorded in the dry state at the wavelength of maximum light absorbance (when moistened). Each sample was individually fully wet out in deionised water and dried to dampness between absorbent tissue prior to immediate determination of light absorbance at the aforementioned wavelength.

Structure (SMILES)	Enhancement (MDI HPU foam)	Enhancement (TDI HPU foam)	suitability to function as colour-forming indicator (on MDI or TDI HPU foams at the loading concentrations employed, damp absorbance versus 0.1 absorbance unit visibility limit)
CN(C)c1ccc(C2(c3ccc(N(C)C)cc3)OC(=O)c3cc(N(C)C)ccc32)cc1 [Crystal Violet Lactone, crystal violet lactone]	13.4	14.8	–
CCN(CC)c1ccc(-c2nc(Oc3ccc(C(C)(C)c4ccc(Oc5nc(-c6ccc(N(CC)CC)cc6)nc6ccccc56)cc4)cc3)c3ccccc3n2)cc1 [Pergascript Yellow I 3R, 4,4′-[(1-methylethylidene)bis(4,1-phenyleneoxy-4,2-quinazolinediyl)]bis[N,N-diethyl]benzamine]	1.1	0.7	not well-suited
CCN(CC)c1ccc2c(c1)Oc1ccc(N(Cc3ccccc3)Cc3ccccc3)cc1C21OC(=O)c2ccccc21 (stereo not drawn) [WinCon Green, 2-dibenzylamino-6-diethylaminofluoran]	5.7	7.0	–
CCN(CC)c1ccc2c(c1)Oc1cc(C)c(Nc3ccccc3)cc1C21OC(=O)c2ccccc21 (stereo not drawn) [WinCon-1, 6-diethylamino-3-methyl-2-phenylaminofluoran]	6.2	6.8	–
CCCCN(CCCC)c1ccc2c(c1)Oc1cc(C)c(Nc3ccccc3)cc1C21OC(=O)c2ccccc21 (stereo not drawn) [WinCon-2, 6-dibutylamino-3-methyl-2-phenylaminofluoran]	5.7	8.1	–
CCN(CC)c1ccc2c(c1)Oc1cc(C)c(Nc3ccc(C)cc3C)cc1C21OC(=O)c2ccccc21 (stereo not drawn) [WinCon-15, 2-(2,4-dimethylphenylamino)-3-methyl-6-diethylaminofluoran]	6.8	9.3	–
CCN(CCC(C)C)c1ccc2c(c1)Oc1cc(C)c(Nc3ccccc3)cc1C21OC(=O)c2ccccc21 (stereo not drawn) [WinCon-205, 6-(N-ethyl, N-isopentylamino)-3-methyl-2-phenylaminofluoran]	6.3	10.3	–
